Data published in ChEMBL document CHEMBL1201862, “PubChem BioAssay data set” (2004).
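Following 48 hours of exposure in 96-well plates, responses at five concentrations were used to interpolate endpoints linearly. At the GI50, growth is halved.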 The source made the active and inactive calls. No stated cut-off is given here; in the data, active = GI50 up to about 1.1 µM and inactive = higher.

How the values were obtained:
Assay in all cases: NCI tumour cell line growth inhibition, 48 h
A549 = tested on: A549
SF-295 = tested on: SF-295
HCC 2998 = tested on: HCC 2998
NCI/ADR-RES = tested on: NCI/ADR-RES
KM12 = tested on: KM12
SN12C = tested on: SN12C
RPMI-8226 = tested on: RPMI-8226
SK-MEL-28 = tested on: SK-MEL-28
HT-29 = tested on: HT-29
SK-MEL-2 = tested on: SK-MEL-2
Malme-3M = tested on: Malme-3M
LOX IMVI = tested on: LOX IMVI
SK-MEL-5 = tested on: SK-MEL-5
OVCAR-3 = tested on: OVCAR-3
OVCAR-4 = tested on: OVCAR-4
SF-539 = tested on: SF-539
MDA-MB-435 = tested on: MDA-MB-435
ACHN = tested on: ACHN
HL-60 = tested on: HL-60
HCT-116 = tested on: HCT-116

SMILES	GI50 (A549)	GI50 (SF-295)	GI50 (HCC 2998)	GI50 (NCI/ADR-RES)	GI50 (KM12)	GI50 (SN12C)	GI50 (RPMI-8226)	GI50 (SK-MEL-28)	GI50 (HT-29)	GI50 (SK-MEL-2)	GI50 (Malme-3M)	GI50 (LOX IMVI)	GI50 (SK-MEL-5)	GI50 (OVCAR-3)	GI50 (OVCAR-4)	GI50 (SF-539)	GI50 (MDA-MB-435)	GI50 (ACHN)	GI50 (HL-60)	GI50 (HCT-116)
CN(C)c1ccc(C=c2c3ccccc3n3c2cc(-c2ccc(Cl)cc2)[n+]3C)cc1	0.238 µM (active)	0.501 µM (active)	0.603 µM (active)	6.41 µM (inactive)	0.105 µM (active)	0.254 µM (active)	0.0372 µM (active)	0.519 µM (active)	0.315 µM (active)	0.237 µM (active)	0.333 µM (active)	0.194 µM (active)	0.167 µM (active)	0.295 µM (active)	0.748 µM (active)	0.228 µM (active)	0.207 µM (active)	0.514 µM (active)	0.101 µM (active)	0.0653 µM (active)
COc1cc(C2c3cc4c(cc3OC(NNC(N)=S)C2C)OCO4)cc(OC)c1OC (stereo not given)	0.644 µM (active)	0.231 µM (active)	0.906 µM (active)	0.585 µM (active)	0.343 µM (active)	1.03 µM (active)	0.29 µM (active)	0.524 µM (active)	0.269 µM (active)	25.6 µM (inactive)	0.53 µM (active)	0.412 µM (active)	0.269 µM (active)	0.349 µM (active)	41.3 µM (inactive)	0.199 µM (active)	0.0425 µM (active)	0.989 µM (active)	0.165 µM (active)	0.244 µM (active)
CN1CCOC1(C)c1ccccc1 (stereo not given)	> 100 µM (inactive)	> 100 µM (inactive)	> 100 µM (inactive)	> 100 µM (inactive)	> 100 µM (inactive)	> 100 µM (inactive)	> 100 µM (inactive)	> 100 µM (inactive)	> 100 µM (inactive)	> 100 µM (inactive)	> 100 µM (inactive)	> 100 µM (inactive)	> 26.1 µM (inactive)	> 100 µM (inactive)	> 100 µM (inactive)	> 100 µM (inactive)	> 100 µM (inactive)	> 100 µM (inactive)	> 100 µM (inactive)	> 100 µM (inactive)
O=C1Nc2ccccc2/C1=C1/Nc2ccccc2/C1=N/OCCO	1.52 µM (inactive)	17.3 µM (inactive)	24.8 µM (inactive)	> 100 µM (inactive)	0.149 µM (active)	29 µM (inactive)	> 100 µM (inactive)	> 100 µM (inactive)	2.44 µM (inactive)	0.457 µM (active)	5.53 µM (inactive)	0.69 µM (active)	0.771 µM (active)	1.51 µM (inactive)	> 100 µM (inactive)	> 100 µM (inactive)	2.47 µM (inactive)	0.352 µM (active)	3.87 µM (inactive)	0.481 µM (active)
O=[N+]([O-])c1cc(-c2nnc(C34CC5CC(CC(C5)C3)C4)o2)cc([N+](=O)[O-])c1	48.1 µM (inactive)	> 100 µM (inactive)	70.5 µM (inactive)	> 100 µM (inactive)	> 100 µM (inactive)	90.8 µM (inactive)	82.2 µM (inactive)	86.1 µM (inactive)	6.41 µM (inactive)	63.4 µM (inactive)	64.4 µM (inactive)	> 100 µM (inactive)	14.1 µM (inactive)	63.5 µM (inactive)	> 100 µM (inactive)	> 100 µM (inactive)	19.1 µM (inactive)	58.6 µM (inactive)	> 100 µM (inactive)	12.3 µM (inactive)
Cc1cc(C(=C2C=CC(=N)C=C2)c2ccc(N)cc2)ccc1N [FUCHSIN, BASIC]	3.38 µM (inactive)	0.564 µM (active)	3.23 µM (inactive)	11.7 µM (inactive)	2.34 µM (inactive)	0.299 µM (active)	2.42 µM (inactive)	8.2 µM (inactive)	3.66 µM (inactive)	3.18 µM (inactive)	2.65 µM (inactive)	2.25 µM (inactive)	1.46 µM (inactive)	3.96 µM (inactive)	8.43 µM (inactive)	0.706 µM (active)	4.08 µM (inactive)	8.09 µM (inactive)	3.21 µM (inactive)	3.36 µM (inactive)
